Like-named read-outs stand apart in the source and are kept apart here.
What was measured:
[1] = system: fungi (mold); assay: MIC of octyl gallate against fungi (mold) with trisodium citrate and propyl gallate; assay type: cell-based; conditions: for MIC: 24 h, read-out: Octyl gallate MIC, SDA (+0.9% trisodium citrate), 24 hr, triplicate
[2] = system: clinical isolate MRSA; assay: Oxacillin MIC against MRSA with concomitant octyl gallate and short-chain alkyl gallate (β-lactam sensitivity, ILSMR effect); assay type: cell-based, Staphylococcus aureus
[3] = system: MRSA COL strain; assay: Time required for killing bacteria, octyl gallate and propyl gallate (FIG. 1); assay type: cell-based, Staphylococcus aureus; conditions: concomitant use of octyl gallate and propyl gallate
Text: FIG. 1 is a graph showing shortening of the time required for killing bacteria by the concomitant use of octyl gallate and propyl gallate against MRSA COL strain.

[4] = system: Candida albicans ATCC 10231; assay: Time required for killing mold, octyl gallate and propyl gallate (FIG. 2); assay type: cell-based; conditions: concomitant use of octyl gallate and propyl gallate, FIG. 2
Text: FIG. 2 is a graph showing shortening of the time required for killing mold by the concomitant use of octyl gallate and propyl gallate against Candida albicans ATCC 10231.

[5] = system: influenza virus in MDCK cells; assay type: cell-based
[6] = system: herpes virus (HSV-1); assay: Virucidal activity against HSV-1 (Tables 14, 15, FIG. 5); assay type: cell-based
[7] = clinical isolate MRSA, Isoamyl gallate 6.25
[8] = clinical isolate MRSA, Isoamyl gallate 12.5
[9] = clinical isolate MRSA, Isoamyl gallate 25
[10] = clinical isolate MRSA, Propyl gallate 6.25
[11] = clinical isolate MRSA, Propyl gallate 12.5
[12] = clinical isolate MRSA, Propyl gallate 25
[13] = clinical isolate MRSA, short-chain alkyl gallate None

## CCCCCCCCOC(=O)c1cc(O)c(O)c(O)c1 [octyl gallate]
[1]; phosphate buffer (1 mM), propyl gallate 0
  MIC: 20 µg/mL
[1]; propyl gallate 300 μg/mL
  MIC: 10 µg/mL
[1]; propyl gallate 1000 μg/mL
  MIC: 10 µg/mL
[1]; […]
  antimicrobial activity against fungi (mold): reinforced
[2]; clinical isolate MRSA
  octyl gallate concentration with growth inhibitory effect in all the bacterial strains with only octyl gallate: 25 µg/mL
[2]; [7]
  Concentration of octyl gallate for concomitant use necessary for obtaining oxacillin MIC not higher than 2 μg/mL, C50: >12.5 µg/mL
  Concentration of octyl gallate for concomitant use necessary for obtaining oxacillin MIC not higher than 2 μg/mL, C100: >12.5 µg/mL
[2]; [8]
  Concentration of octyl gallate for concomitant use necessary for obtaining oxacillin MIC not higher than 2 μg/mL, C50: >12.5 µg/mL
  Concentration of octyl gallate for concomitant use necessary for obtaining oxacillin MIC not higher than 2 μg/mL, C100: >12.5 µg/mL
[2]; [9]
  Concentration of octyl gallate for concomitant use necessary for obtaining oxacillin MIC not higher than 2 μg/mL, C50: 1.56 µg/mL
  Concentration of octyl gallate for concomitant use necessary for obtaining oxacillin MIC not higher than 2 μg/mL, C100: 1.56 µg/mL
  Concentration of octyl gallate for concomitant use necessary for obtaining oxacillin MIC not higher than 2 μg/mL, Range: 1.56 µg/mL
[2]; [10]
  Concentration of octyl gallate for concomitant use necessary for obtaining oxacillin MIC not higher than 2 μg/mL, C50: >12.5 µg/mL
  Concentration of octyl gallate for concomitant use necessary for obtaining oxacillin MIC not higher than 2 μg/mL, C100: >12.5 µg/mL
[2]; [11]
  Concentration of octyl gallate for concomitant use necessary for obtaining oxacillin MIC not higher than 2 μg/mL, C50: >12.5 µg/mL
  Concentration of octyl gallate for concomitant use necessary for obtaining oxacillin MIC not higher than 2 μg/mL, C100: >12.5 µg/mL
  Concentration of octyl gallate for concomitant use necessary for obtaining oxacillin MIC not higher than 2 μg/mL, Range: 6.25 to 12.5 µg/mL
[2]; [12]
  Concentration of octyl gallate for concomitant use necessary for obtaining oxacillin MIC not higher than 2 μg/mL, C50: 3.13 µg/mL
  Concentration of octyl gallate for concomitant use necessary for obtaining oxacillin MIC not higher than 2 μg/mL, C100: 6.25 µg/mL
  Concentration of octyl gallate for concomitant use necessary for obtaining oxacillin MIC not higher than 2 μg/mL, Range: 1.56 to 6.25 µg/mL
[2]; [13]
  Concentration of octyl gallate for concomitant use necessary for obtaining oxacillin MIC not higher than 2 μg/mL, C50: 25 µg/mL
  Concentration of octyl gallate for concomitant use necessary for obtaining oxacillin MIC not higher than 2 μg/mL, C100: 25 µg/mL
  Concentration of octyl gallate for concomitant use necessary for obtaining oxacillin MIC not higher than 2 μg/mL, Range: 25 µg/mL
[2]; in the coexistence of propyl gallate or isoamyl gallate
  octyl gallate concentration at which a decrease of the MIC value of oxacillin to MRSA occurs: 1.56 µg/mL
[2]; isoamyl gallate coexisting at 25 μg/mL
  Concentration of octyl gallate for concomitant use for oxacillin MIC of 2 μg/mL or lower, 100% of MRSA strains (C100): 1.56 µg/mL
[2]; propyl gallate coexisting at 25 μg/mL
  Concentration of octyl gallate for concomitant use for oxacillin MIC of 2 μg/mL or lower, 100% of MRSA strains (C100): 6.25 µg/mL
[2]; several bacterial strains, oxacillin with octyl gallate
  octyl gallate concentration at which an ILSMR effect was confirmed: 12.5 µg/mL
[3]
  time required for killing bacteria: shortened to a large extent
[4]
  time required for killing mold: shortened to a large extent
[5]
  growth inhibition of influenza virus in MDCK cells: markedly reinforced
  growth of influenza virus in MDCK cells: inhibits the growth
[6]; Table 14, octyl gallate 10 mg/L, J1816 30 mg/L, Na3citrate 0.90%
  No of plaques: 0
[6]; Table 14, octyl gallate 10 mg/L, propyl gallate 300 mg/L, J1816 120 mg/L, Na3citrate 0.90%
  No of plaques: 0
[6]; Table 14, octyl gallate 20 mg/L, J1816 60 mg/L, Na3citrate 0.90%
  No of plaques: 0
[6]; Table 14, octyl gallate 20 mg/L, propyl gallate 300 mg/L, J1816 150 mg/L, Na3citrate 0.90%
  No of plaques: 0
[6]; Table 14, octyl gallate 30 mg/L, J1816 90 mg/L, Na3citrate 0.90%
  No of plaques: 0
[6]; Table 14, octyl gallate 30 mg/L, propyl gallate 300 mg/L, J1816 180 mg/L, Na3citrate 0.90%
  No of plaques: 0
[6]; Table 14, octyl gallate 60 mg/L, J1816 180 mg/L, Na3citrate 0.90%
  No of plaques: 0
[6]; Table 14, octyl gallate 60 mg/L, J1816 180 mg/L, Na3citrate not given
  No of plaques: 0
[6]; Table 14, octyl gallate 60 mg/L, propyl gallate 300 mg/L, J1816 270 mg/L, Na3citrate 0.90%
  No of plaques: 0
[6]; Table 14, octyl gallate 100 mg/L, J1816 300 mg/L, Na3citrate 0.90%
  No of plaques: 0
[6]; Table 14, octyl gallate 100 mg/L, propyl gallate 300 mg/L, J1816 390 mg/L, Na3citrate 0.90%
  No of plaques: 0
[6]; Table 15, octyl gallate 10 mg/L, J1816 0, NaCitrate 0.90%
  No of plaques: 48
[6]; Table 15, octyl gallate 10 mg/L, propyl gallate 300 mg/L, J1816 0, NaCitrate 0.90%
  No of plaques: 11
[6]; Table 15, octyl gallate 20 mg/L, J1816 0, NaCitrate 0.90%
  No of plaques: 0
[6]; Table 15, octyl gallate 20 mg/L, propyl gallate 300 mg/L, J1816 0, NaCitrate 0.90%
  No of plaques: 0
[6]; Table 15, octyl gallate 30 mg/L, J1816 0, NaCitrate 0.90%
  No of plaques: 0
[6]; Table 15, octyl gallate 30 mg/L, propyl gallate 300 mg/L, J1816 0, NaCitrate 0.90%
  No of plaques: 0
[6]; Table 15, octyl gallate 60 mg/L, J1816 0, NaCitrate 0.90%
  No of plaques: 0

Reference: patent publication US20100056627A1, “PHARMACEUTICAL COMPOSITIONS OF ALKYL GALLATES” (priority 2006, published 2010)
